Assay results from paper PMC8272913 (ACS chemical neuroscience, 2019).
Like-named read-outs stand apart in the source and are kept apart here.

Tests used:
[1] = target: rat SERT (rSERT) (Rattus norvegicus, UniProt P31652); assay: Inhibition of [3H]citalopram binding to rSERT from rat brain tissue; settings: for Ki: read-out: Ki, binding affinity for rSERT; for fold decrease in rSERT binding affinity relative to paroxetine: vs paroxetine
[2] = target: hSERT (Homo sapiens, UniProt P31645); type: binding
[3] = target: T1, hSERT WT (Homo sapiens, UniProt P31645); settings: read-out: Ki (nM) RTI-55 Binding WT
[4] = target: T2, hSERT-A169D (Homo sapiens, UniProt P31645, A169D); type: binding
[5] = target: T1, hSERT WT; type: cell-based; settings: read-out: Ki (nM) 5-HT Transport WT
[6] = target: T2, hSERT-A169D; type: cell-based

Sequence of rat SERT (rSERT) (P31652 whole entry): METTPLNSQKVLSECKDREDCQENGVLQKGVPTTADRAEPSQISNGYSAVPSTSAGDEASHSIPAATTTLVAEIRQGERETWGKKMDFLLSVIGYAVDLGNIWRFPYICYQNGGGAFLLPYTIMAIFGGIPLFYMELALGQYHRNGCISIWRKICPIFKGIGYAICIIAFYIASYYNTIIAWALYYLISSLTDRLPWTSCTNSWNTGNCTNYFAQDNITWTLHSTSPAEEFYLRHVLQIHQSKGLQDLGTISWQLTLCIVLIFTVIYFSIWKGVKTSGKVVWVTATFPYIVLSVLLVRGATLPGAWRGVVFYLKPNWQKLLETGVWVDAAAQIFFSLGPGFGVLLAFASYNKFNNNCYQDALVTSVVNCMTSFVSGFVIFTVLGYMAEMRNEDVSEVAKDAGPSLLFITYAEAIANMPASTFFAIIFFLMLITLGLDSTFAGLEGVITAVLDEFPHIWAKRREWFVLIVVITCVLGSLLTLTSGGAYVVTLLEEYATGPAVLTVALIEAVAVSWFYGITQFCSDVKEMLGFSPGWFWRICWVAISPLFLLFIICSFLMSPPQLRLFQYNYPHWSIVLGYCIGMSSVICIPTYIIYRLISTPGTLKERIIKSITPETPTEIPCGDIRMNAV

Brc1ccc([C@@H]2CCNC[C@H]2COc2ccc3c(c2)OCO3)cc1 [compound 13, 4-bromoparoxetine]
Ki [1]: 4.9 nM
fold decrease in rSERT binding affinity relative to paroxetine [1]: 16 fold
fold reduction in binding affinity as compared to paroxetine [2]: ~ 4 fold
Ki ([2]; read-out: Ki, binding affinity): 0.32 ± 0.028 nM
Ki [3]: 1.07 ± 0.3 nM
RTI-55 Binding Sensitivity toward the A169D mutation ([4]; A169D versus WT): 1.6
Ki ([4]; read-out: Ki (nM) RTI-55 Binding A169D, hSERT A169D): 1.72 ± 0.39 nM
Ki [5]: 2.3 ± 0.27 nM
5-HT Transport Sensitivity toward the A169D mutation ([6]; A169D versus WT): 2.8
Ki ([6]; read-out: Ki (nM) 5-HT Transport A169D, hSERT A169D): 6.37 ± 0.74 nM

CCCCCCN1CCC(c2ccc(F)cc2)C(COc2ccc3c(c2)OCO3)C1 (centres unmarked) [compound 1]
Ki [1]: 395 nM

Fc1ccc(C2CCN(Cc3ccc(Br)cc3)CC2COc2ccc3c(c2)OCO3)cc1 (centres unmarked) [compound 3]
Ki [1]: 204 nM

c1ccc([C@@H]2CCNC[C@H]2COc2ccc3c(c2)OCO3)cc1 [compound 15, desfluoroparoxetine]
Ki [1]: 0.557 nM

O=C(Cc1ccc(Br)cc1)N1CCC(c2ccc(F)cc2)C(COc2ccc3c(c2)OCO3)C1 (centres unmarked) [compound 6]
Ki [1]: 3820 nM

CCCN1CCC(c2ccc(F)cc2)C(COc2ccc3c(c2)OCO3)C1 (centres unmarked) [compound 2]
Ki [1]: 98 nM

CN1CC[C@@H](c2ccc(F)cc2)[C@H](COc2ccc3c(c2)OCO3)C1 [compound 14]
Ki [1]: 2.95 nM
fold decrease in rSERT binding affinity relative to paroxetine [1]: 9.5 fold
